In patent US20260242416A1, “ANTIMICROBIAL PEPTIDES” (priority 2023, published 2026):
Like-named read-outs stand apart in the source and are kept apart here. Where a SMILES comes first, the peptide text is derived from it.

Legend:
[1] = test system: E. coli ATCC 25922; type: cell-based, Escherichia coli
Protocol: (§1) Bacteria were grown overnight at 37° C. in Mueller-Hinton Broth (MHB; Sigma-Aldrich, St. Louis. MO, USA) in a shaking incubator and aliquoted into cryovials with a 50% glycerol solution in a 1:1 ratio. No additives were added to the MHB during the growth of bacterial isolates. Glycerol stocks were stored at −80° C.
(§2) The antimicrobial activity of the putative AMPs was determined by a broth microdilution assay as described by the Clinical and Laboratory Standards Institute, with the published adaptations for testing of cationic peptides. Escherichia coli 25922 and Staphylococcus aureus 29213 isolates were purchased from the American Type Culture Collection (ATCC; Manassas, VA, USA). A human clinical isolate of Salmonella enterica serovar Enteritidis was provided by the BC Centre for Disease Control. Bacteria from stocks stored at −80° C. were streaked onto nonselective Columbia blood agar with 5% sheep blood (Oxoid) and incubated overnight at 37° C. Next, 2-4 colonies were streaked onto a new agar plate to ensure uniform health of colonies used in the broth microdilution assay. Isolated colonies were suspended in MHB and the optical density was measured with a spectrophotometer to create an initial inoculum concentration of approximately 1×10^8 cfu/mL. The inoculum was diluted 1:250 to a final concentration of 2-8×10^5 cfu/mL, which was confirmed by performing a Total Viability Count (TVC). The TVC consisted of plating a 1:1000 dilution of the final inoculum on nonselective media and was also used to confirm the health and purity of the inoculum in each trial.
(§3) Lyophilized 80 μg peptide aliquots synthesized by GenScript (Piscataway, NJ, USA) were resuspended to 1.28 mg/mL with UltraPure water (Thermo Fisher Scientific, Waltham, MA, USA) and serially diluted in polypropylene 96-well microtiter plates (Greiner Bio-One #650261, Kremsmunster, Austria) from 128 down to 0.5 μg/mL. Two columns per plate were reserved for growth and sterility controls. Inoculum was added to the wells containing the peptide and the growth control. Plates were incubated for 20-24 h at 37° C. The minimum inhibitory concentration (MIC) was determined as the lowest peptide concentration where there was no visible bacterial growth.

[2] = test system: S. aureus ATCC 29213; type: cell-based, Staphylococcus aureus
Protocol: as §1, §2, §3

[3] = test system: Salmonella enterica serovar Enteritidis (human clinical isolate); type: cell-based
Protocol: as §1, §2, §3

[4] = serovar Enteritidis (human clinical isolate)
[5] = Table 14, first value of the cell, three independent experiments, highest concentration tested 128
[6] = Table 14, third value of the cell, three independent experiments, highest concentration tested 128
[7] = Table 14, second value of the cell, three independent experiments, highest concentration tested 128

CC[C@H](C)[C@H](NC(=O)[C@H](CO)NC(=O)[C@@H](NC(=O)[C@@H](NC(=O)[C@@H](N)C(C)C)[C@@H](C)O)[C@@H](C)CC)C(=O)N[C@@H](C)C(=O)N[C@@H](CCCNC(=N)N)C(=O)N[C@@H](CCCNC(=N)N)C(=O)N[C@H](C(=O)N[C@@H](CO)C(=O)N[C@@H](CO)C(=O)N[C@@H](Cc1c[nH]cn1)C(=O)N[C@@H](CCCCN)C(=O)N[C@@H](CCCNC(=N)N)C(=O)NCC(=O)O)C(C)C [BoAr5, VTISIARRVSSHKRG] (H-VTISIARRVSSHKRG-OH; N-terminus and C-terminus assumed)
>128/>128/>128 ug/mL: MIC (ug/mL) E. coli ([1]; ATCC 25922) | MIC (ug/mL) S. aureus ([2]; ATCC 29213) | MIC (ug/mL) S. Enteritidis [3, 4]

CC[C@H](C)[C@H](NC(=O)[C@H](Cc1ccccc1)NC(=O)[C@H](CCCCN)NC(=O)[C@@H](NC(=O)[C@H](CCCCN)NC(=O)[C@@H](N)CC(N)=O)[C@@H](C)CC)C(=O)N[C@@H](CC(N)=O)C(=O)N[C@@H](CCCCN)C(=O)N[C@@H](Cc1ccc(O)cc1)C(=O)N[C@H](C(=O)N[C@@H](CCCCN)C(=O)N[C@@H](CCCCN)C(=O)N[C@H](C(=O)N[C@@H](CCC(N)=O)C(=O)N[C@@H](CC(C)C)C(=O)N[C@@H](CCCCN)C(=O)N[C@@H](CCCCN)C(=O)N[C@H](C(=O)N[C@@H](CC(C)C)C(=O)N[C@H](C(=O)N[C@@H](CCCCN)C(=O)N[C@@H](CO)C(=O)O)C(C)C)[C@@H](C)CC)C(C)C)C(C)C [BoCo1] (H-NKIKFINKYVKKVQLKKILVKS-OH; N-terminus and C-terminus assumed)
>128/>128/>128 ug/mL: MIC (ug/mL) E. coli ([1]; ATCC 25922) | MIC (ug/mL) S. aureus ([2]; ATCC 29213) | MIC (ug/mL) S. Enteritidis [3, 4]

CC[C@H](C)[C@H](NC(=O)[C@H](Cc1c[nH]cn1)NC(=O)[C@H](Cc1c[nH]cn1)NC(=O)[C@H](Cc1c[nH]cn1)NC(=O)[C@@H](N)CCCCN)C(=O)N[C@@H](CCCCN)C(=O)N[C@@H](CC(C)C)C(=O)N[C@@H](CCCNC(=N)N)C(=O)N[C@@H](Cc1c[nH]cn1)C(=O)NCC(=O)N[C@@H](CCCNC(=N)N)C(=O)N[C@@H](Cc1c[nH]cn1)C(=O)N[C@@H](CCCNC(=N)N)C(=O)N[C@@H](CCCNC(=N)N)C(=O)N[C@@H](CO)C(=O)N[C@H](C(=O)N[C@@H](CC(C)C)C(=O)N[C@@H](CCCNC(=N)N)C(=O)N[C@H](C(=O)N[C@@H](CC(C)C)C(=O)N[C@H](C(=O)O)C(C)C)[C@@H](C)O)C(C)C [CaCa3] (H-KHHHIKLRHGRHRRSVLRTLV-OH; N-terminus and C-terminus assumed)
>128/>128/>128 ug/mL: MIC (ug/mL) E. coli ([1]; ATCC 25922) | MIC (ug/mL) S. aureus ([2]; ATCC 29213) | MIC (ug/mL) S. Enteritidis [3, 4]

CC[C@H](C)[C@H](NC(=O)CN)C(=O)N[C@@H](Cc1ccccc1)C(=O)N[C@@H](CO)C(=O)N[C@@H](CC(C)C)C(=O)N[C@H](C(=O)N[C@@H](CCCCN)C(=O)NCC(=O)N[C@@H](C)C(=O)N[C@@H](C)C(=O)N[C@@H](CCCCN)C(=O)O)[C@@H](C)CC [LeBo1, GIFSLIKGAAK] (H-GIFSLIKGAAK-OH; N-terminus and C-terminus assumed)
>128/>128/>128 ug/mL: MIC (ug/mL) E. coli [1, 5] | MIC (ug/mL) S. aureus [2, 6] | MIC (ug/mL) S. Enteritidis [3, 7]

CSCC[C@H](NC(=O)[C@@H](N)C(C)C)C(=O)N[C@@H](CC(C)C)C(=O)N1CCC[C@H]1C(=O)N[C@@H](CCCCN)C(=O)N[C@@H](Cc1ccccc1)C(=O)N[C@@H](CCCCN)C(=O)N[C@@H](CCCNC(=N)N)C(=O)O [MiDe1, VMLPKFKR] (H-VMLPKFKR-OH; N-terminus and C-terminus assumed)
>128/>128/>128 ug/mL: MIC (ug/mL) E. coli ([1]; ATCC 25922) | MIC (ug/mL) S. aureus ([2]; ATCC 29213) | MIC (ug/mL) S. Enteritidis [3, 4]

CC[C@H](C)[C@H](NC(=O)[C@H](CC(=O)O)NC(=O)[C@H](CO)NC(=O)[C@H](CC(C)C)NC(=O)[C@@H]1CCCN1C(=O)[C@@H](N)[C@@H](C)O)C(=O)N[C@@H](Cc1ccccc1)C(=O)N[C@@H](CCCNC(=N)N)C(=O)NCC(=O)N[C@@H](CCC(N)=O)C(=O)N[C@@H](CC(C)C)C(=O)N[C@@H](CCCNC(=N)N)C(=O)N[C@@H](CO)C(=O)N[C@@H](CCCNC(=N)N)C(=O)N[C@H](C(=O)N[C@@H](CO)C(=O)N[C@@H](CCCNC(=N)N)C(=O)O)C(C)C [NaVi1, TPLSDIFRGQLRSRVSR] (H-TPLSDIFRGQLRSRVSR-OH; N-terminus and C-terminus assumed)
>128/>128/>128 ug/mL: MIC (ug/mL) E. coli ([1]; ATCC 25922) | MIC (ug/mL) S. aureus ([2]; ATCC 29213) | MIC (ug/mL) S. Enteritidis [3, 4]

CC(C)C[C@H](NC(=O)CNC(=O)[C@H](CO)NC(=O)[C@H](CO)NC(=O)[C@H](CO)NC(=O)[C@H](CO)NC(=O)[C@H](CC(C)C)NC(=O)[C@@H]1CCCN1C(=O)[C@H](CO)NC(=O)[C@H](CC(C)C)NC(=O)[C@H](CO)NC(=O)[C@@H](N)CO)C(=O)NCC(=O)N[C@@H](CCCCN)C(=O)N[C@@H](CCCCN)C(=O)N[C@@H](CCCCN)C(=O)N[C@@H](CCCCN)C(=O)N[C@@H](CCCNC(=N)N)C(=O)N[C@@H](CCCCN)C(=O)N[C@@H](CO)C(=O)N[C@@H](CCCCN)C(=O)N[C@@H](CCCNC(=N)N)C(=O)N[C@@H](C)C(=O)N[C@@H](CO)C(=O)N[C@@H](CCCNC(=N)N)C(=O)O [NaVi2] (H-SSLSPLSSSSGLGKKKKRKSKRASR-OH; N-terminus and C-terminus assumed)
>128/>128/>128 ug/mL: MIC (ug/mL) E. coli ([1]; ATCC 25922) | MIC (ug/mL) S. aureus ([2]; ATCC 29213) | MIC (ug/mL) S. Enteritidis [3, 4]

CC[C@H](C)[C@H](NC(=O)[C@H](CS)NC(=O)[C@H](CCCNC(=N)N)NC(=O)[C@H](CS)NC(=O)[C@H](CO)NC(=O)[C@H](CCCNC(=N)N)NC(=O)[C@H](CO)NC(=O)[C@H](CO)NC(=O)[C@H](CO)NC(=O)CN)C(=O)N[C@@H](CCCNC(=N)N)C(=O)N[C@@H](CC(C)C)C(=O)N[C@@H](CO)C(=O)N[C@@H](CCCNC(=N)N)C(=O)N[C@@H](CC(C)C)C(=O)N[C@@H](CO)C(=O)N[C@@H](CO)C(=O)N[C@@H](CCCCN)C(=O)N[C@@H](CCCNC(=N)N)C(=O)N[C@H](C(=O)O)[C@@H](C)O [NaVi4] (H-GSSSRSCRCIRLSRLSSKRT-OH; N-terminus and C-terminus assumed)
>128/>128/>128 ug/mL: MIC (ug/mL) E. coli ([1]; ATCC 25922) | MIC (ug/mL) S. aureus ([2]; ATCC 29213) | MIC (ug/mL) S. Enteritidis [3, 4]

CC[C@H](C)[C@H](NC(=O)CNC(=O)[C@H](CO)NC(=O)[C@@H](NC(=O)[C@H](CC(C)C)NC(=O)CN)[C@@H](C)CC)C(=O)N[C@@H](CC(C)C)C(=O)NCC(=O)N[C@@H](C)C(=O)NCC(=O)N[C@@H](CCCCN)C(=O)N[C@@H](CCCCN)C(=O)O [OdMa8, GLISGILGAGKK] (H-GLISGILGAGKK-OH; N-terminus and C-terminus assumed)
>128/>128/>128 ug/mL: MIC (ug/mL) E. coli [1, 5] | MIC (ug/mL) S. aureus [2, 6] | MIC (ug/mL) S. Enteritidis [3, 7]

CC[C@H](C)[C@H](NC(=O)[C@H](Cc1c[nH]cn1)NC(=O)[C@H](Cc1c[nH]cn1)NC(=O)[C@H](Cc1ccc(O)cc1)NC(=O)[C@@H](N)CCCCN)C(=O)N[C@@H](CCCCN)C(=O)N[C@@H](CC(C)C)C(=O)N[C@@H](CCCNC(=N)N)C(=O)N[C@@H](Cc1c[nH]cn1)C(=O)NCC(=O)N[C@@H](CCCNC(=N)N)C(=O)N[C@@H](Cc1c[nH]cn1)C(=O)N[C@@H](CCCNC(=N)N)C(=O)N[C@@H](CCCNC(=N)N)C(=O)N[C@H](C(=O)N[C@H](C(=O)N[C@@H](Cc1c[nH]cn1)C(=O)O)[C@@H](C)CC)[C@@H](C)O [PaVa2, KYHHIKLRHGRHRRTIH] (H-KYHHIKLRHGRHRRTIH-OH; N-terminus and C-terminus assumed)
>128/>128/>128 ug/mL: MIC (ug/mL) E. coli ([1]; ATCC 25922) | MIC (ug/mL) S. aureus ([2]; ATCC 29213) | MIC (ug/mL) S. Enteritidis [3, 4]
